{"source": "patent EP0341661A2", "about": "“Peptide-drug compositions containing alpha-aminoboronic acid derivatives” (THE DU PONT MERCK PHARMACEUTICAL COMPANY, priority 1988, dated 1989)", "system": "aminopeptidases", "assay": "In situ nasal perfusion: degradation of 100 µM leucine enkephalin in the nasal perfusate", "type": "in vivo, Sprague-Dawley rats", "conditions": "for % Leucine Enkephalin Remaining: 0.1 µM inhibitor", "procedure": "In order to evaluate the effectiveness of the α-aminoboronic acid derivative inhibitors of this invention, an animal model was used (according to A. Hussain, J. Furaj, A. Yukihiko and J. E. Truelove, Biochem. Biophys. Res. Com. 133, 923, 1985) to assess the degradation of proteins and peptides in situ and in vivo in situ in the nasal cavity of rats. The method involved the use of Sprague-Dawley rats weighing approximately 300 grams. Each rat was anesthetized with sodium pentobarbitol (50 mg/kg). An incision was made in the neck and the trachea was canulated with PE 240 tubing. For the in situ studies, a second tube, which served to introduce the perfusing solution, was inserted through the esophagus to the posterior part of the nasal cavity. The nasopalatine was closed with an adhesive to prevent drainage of the perfusing solution from the nasal to the oral cavity. For the in vivo in situ studies, the esophagus was canulated using PE 240 tubing closed at one end. The closed end was pushed to the posterior end of the nasal passage and then tied in place. The nasopalatine was closed with an adhesive to prevent drainage of the perfusing solution from the nasal to the oral cavity. The rats were dosed in one nostril with 50 µl of peptide solution in two forms; the control solution had no inhibitor added, the test solution had inhibitor added at concentrations specified in the examples shown below. The dosing solution was 0.1 M phosphate buffer (pH 7.4). At certain time intervals (one rat/time interval), the drug was washed from the nose via the other nostril with 10 ml of 0.1 M phosphate buffer (pH 3.8) using a peristaltic pump. The nasal washing was then placed in a 10 ml volumetric flask and adjusted to 10 ml with the same buffer and analyzed for the peptide by HPLC. The analysis of leucine enkephalin and its major metabolite involved taking aliquots of samples, diluting them with 200 µl of 0.1 M citric acid (pH 2.3) to quench hydrolysis and subjecting the samples to analysis (for in vivo in situ studies, the washings were injected as they were obtained). High Pressure Liquid Chromatography (HPLC) was run on a 4.6 x 250 mm C₈ column. The mobile phase consisted of 0.1 M NaH₂PO₄-H₃PO₄-acetonitrile (916 : 5 : 275) and was delivered at a flow rate of 1.7 ml/min. Detection was by UV at 210 nm. Retention times for leucine enkephalin and its major degradation product, Des-Tyr-leucine enkephalin were 7.3 and 4.8 min., respectively. Data were calculated as % of leucine enkephalin remaining in the nasal perfusate as a function of time, counting the concentration at zero time as 100%. In this example, a 10 ml solution of 0.1 M phosphate buffer solution (pH 7.4) containing 100 µM leucine enkephalin (the peptide) in the absence or presence of 0.1 µM 3-methyl-1(4,4,5,5-tetramethyl-1,3,2-dioxaborolane-2-yl)-1-butamine, trifluoroacetic acid salt (boroleucine) as the inhibitor was perfused nasally in rats as described above. A 10 ml portion of the peptide solution was placed in a water-jacketed container, maintained at 37°C and circulated through the nasal cavity of rats using a peristaltic pump. The perfusing solution was passed through the nasal cavity, out the nostrils, through a funnel, and returned to the water-jacketed container. The perfusate was analyzed by the ANALYTICAL METHOD described above.", "note": "Where a name gives a salt, the structure may show the parent alone."}
{"smiles": "CC(C)CC(N)B1OC(C)(C)C(C)(C)O1", "note": "(centres unmarked) [boroleucine, 3-methyl-1(4,4,5,5-tetramethyl-1,3,2-dioxaborolane-2-yl)-1-butamine, trifluoroacetic acid salt]", "values": [{"measurement": "% of leucine enkephalin remaining in the nasal perfusate", "setting": "0.01 µM Boroleucine (title: 0.1 µM), 0 min", "value": "100.0±0.0", "unit": "%"}, {"measurement": "% of leucine enkephalin remaining in the nasal perfusate", "setting": "0.01 µM Boroleucine (title: 0.1 µM), 5 min", "value": "96.6±1.5", "unit": "%"}, {"measurement": "% of leucine enkephalin remaining in the nasal perfusate", "setting": "0.01 µM Boroleucine (title: 0.1 µM), 10 min", "value": "93.5±3.0", "unit": "%"}, {"measurement": "% of leucine enkephalin remaining in the nasal perfusate", "setting": "0.01 µM Boroleucine (title: 0.1 µM), 20 min", "value": "96.4±1.7", "unit": "%"}, {"measurement": "% of leucine enkephalin remaining in the nasal perfusate", "setting": "0.01 µM Boroleucine (title: 0.1 µM), 30 min", "value": "92.7±3.3", "unit": "%"}, {"measurement": "% of leucine enkephalin remaining in the nasal perfusate", "setting": "0.01 µM Boroleucine (title: 0.1 µM), 45 min", "value": "91.8±2.5", "unit": "%"}, {"measurement": "% of leucine enkephalin remaining in the nasal perfusate", "setting": "0.01 µM Boroleucine (title: 0.1 µM), 90 min", "value": "85.7±3.5", "unit": "%"}, {"measurement": "% of leucine enkephalin remaining in the nasal perfusate", "setting": "0.01 µM inhibitor, 0 min", "value": "100.0±0.0", "unit": "%"}, {"measurement": "% of leucine enkephalin remaining in the nasal perfusate", "setting": "0.01 µM inhibitor, 10 min", "value": "90.6±3.5", "unit": "%"}, {"measurement": "% of leucine enkephalin remaining in the nasal perfusate", "setting": "0.01 µM inhibitor, 20 min", "value": "89.1±5.3", "unit": "%"}, {"measurement": "% of leucine enkephalin remaining in the nasal perfusate", "setting": "0.01 µM inhibitor, 30 min", "value": "79.1±2.9", "unit": "%"}, {"measurement": "% of leucine enkephalin remaining in the nasal perfusate", "setting": "0.01 µM inhibitor, 45 min", "value": "74.9±2.8", "unit": "%"}, {"measurement": "% of leucine enkephalin remaining in the nasal perfusate", "setting": "0.01 µM inhibitor, 60 min", "value": "69.2±2.0", "unit": "%"}, {"measurement": "% of leucine enkephalin remaining in the nasal perfusate", "setting": "0.01 µM inhibitor, 90 min", "value": "56.2±1.6", "unit": "%"}, {"measurement": "% of leucine enkephalin remaining in the nasal perfusate", "setting": "0.03 µM inhibitor, 0 min", "value": "100.0±0.0", "unit": "%"}, {"measurement": "% of leucine enkephalin remaining in the nasal perfusate", "setting": "0.03 µM inhibitor, 5 min", "value": "94.1±1.7", "unit": "%"}, {"measurement": "% of leucine enkephalin remaining in the nasal perfusate", "setting": "0.03 µM inhibitor, 10 min", "value": "93.6±1.6", "unit": "%"}, {"measurement": "% of leucine enkephalin remaining in the nasal perfusate", "setting": "0.03 µM inhibitor, 20 min", "value": "91.8±2.2", "unit": "%"}, {"measurement": "% of leucine enkephalin remaining in the nasal perfusate", "setting": "0.03 µM inhibitor, 30 min", "value": "88.3±1.4", "unit": "%"}, {"measurement": "% of leucine enkephalin remaining in the nasal perfusate", "setting": "0.03 µM inhibitor, 45 min", "value": "85.7±1.3", "unit": "%"}, {"measurement": "% of leucine enkephalin remaining in the nasal perfusate", "setting": "0.03 µM inhibitor, 60 min", "value": "81.5±1.4", "unit": "%"}, {"measurement": "% of leucine enkephalin remaining in the nasal perfusate", "setting": "0.03 µM inhibitor, 90 min", "value": "72.9±1.0", "unit": "%"}, {"measurement": "order of inhibition of degradation", "setting": "0.1 µM boroleucine, 10 µM bestatin, 100 µM puromycin", "value": "boroleucine> bestatin> puromycin"}, {"measurement": "% Leucine Enkephalin Remaining", "setting": "0 min", "value": "100.0±0.0", "unit": "%"}, {"measurement": "% Leucine Enkephalin Remaining", "setting": "5 min", "value": "96.6±1.5", "unit": "%"}, {"measurement": "% Leucine Enkephalin Remaining", "setting": "10 min", "value": "93.5±3.0", "unit": "%"}, {"measurement": "% Leucine Enkephalin Remaining", "setting": "20 min", "value": "96.4±1.7", "unit": "%"}, {"measurement": "% Leucine Enkephalin Remaining", "setting": "30 min", "value": "92.7±3.3", "unit": "%"}, {"measurement": "% Leucine Enkephalin Remaining", "setting": "45 min", "value": "91.8±2.5", "unit": "%"}, {"measurement": "% Leucine Enkephalin Remaining", "setting": "60 min", "value": "88.8±2.6", "unit": "%"}, {"measurement": "% Leucine Enkephalin Remaining", "setting": "90 min", "value": "85.6±3.5", "unit": "%"}, {"measurement": "comparison of the inhibitory effect of equimolar concentrations", "setting": "0.1 µM of each inhibitor", "value": "superior to boroalanine"}]}
